These results are taken from article PMC7405012, “Detection of Chaetomium globosum, Ch. cochliodes and Ch. rectangulare during the Diversity Tracking of Mycotoxin-Producing Chaetomium-like Isolates Obtained in Buildings in Finland” (Toxins, 2020).

One test deals with Ch. globosum 2b/26. Description: Resistance to biocides: ascospore germination. It counts as cell-based, Chaetomium globosum. To be noted: Chaetomium globosum; strain 2b/26, indoor Ch. globosum; read-out: EC50. The procedure:
(§1) The toxicity of biocides and chemicals towards the indoor Chaetomium-like isolates and the reference indoor strains of the genera Aspergillus, Paecilomyces, Penicillium and Trichoderma was assessed in parallel with the six parameters presented in the Supplementary Materials: (1) germ tube assay (Figure S3); (2) estimation of turbidity (Figure S4); (3) visual emission of fluorescence (excitation at 360 nm); (4) visual resporulation of conidia; (5) inhibition of glucose consumption; and (6) resazurin reduction. All assays were performed in malt extract broth (12 g L^−1 malt extract, 7.2 µmol mL^−1 glucose, pH 5.5; Scharlab, Barcelona, Spain) in 96-well microtiter plates as described for the ICP assay.
(§2) The assays measuring inhibition of germination of conidia were done with spore suspensions of 1–2 × 10^6 fungal spores mL−^1. The tests were performed in malt extract broth (Oxoid, Hampshire United Kingdom) 12 g in 1 L, pH 5.5, glucose 7.1 mmol L^−1, and performed on microtiter plates as described by Bencsik et al. for the ICP assay. The germ tube germination is visualized in Figure S3, and the tests estimating turbidity and emission of fluorescence provoked by the germinated and metabolically active conidia and C. globosum ascospores are visualized in Figures S4 and S5. Examples of the tests estimating fluorescence emission, turbidity and re-sporulation of conidia and ascospores are compared in Figure S5. The difference of the endpoints measured with the different assays was between […]. The resazurin reduction assays (Figure S6) were performed as described for the ICP assay, except that the microtiter plates were visually inspected for the change of the blue/violet color of resazurin (indicating inhibition of germination of the exposed conidia) to the […] (indicating metabolic activity and germination of the exposed conidia).
(§3) The formation of germ tubes was inspected by a phase-contrast microscope (Olympus CKX41, Tokyo, Japan; magnification 400×) and an image recording software (Cellsense® standard version 11.0.06, Olympus Soft Imaging Solutions GmbH, Münster, Germany, 2012) after 1 and 2 days of incubation at 28 °C. The EC50 corresponded to the inhibition of 50% (estimated as the concentration between EC0 and EC100) of the conidia compared to the ethanol control (the growth medium containing 1% of ethanol). The tests were run in triplicate and calibrated with triclosan (CAS: 3380-34-5; Sigma Chemical Co., St. Louis, MO, USA) giving a mean SD of ±<20%.

The subject of test [1] is Aspergillus calidoustus MH4. Description: Resistance to biocides: conidial germination. It counts as cell-based. The settings on record: strain MH4, indoor Aspergillus calidoustus; read-out: EC50. The procedure:
as §1, §2, §3

The test system of test [2] is Aspergillus section Nigri Asp 32. The test is described as follows: Resistance to biocides: conidial germination. It counts as cell-based. To be noted: strain Asp 32, indoor Aspergillus section Nigri; read-out: EC50. The procedure:
as §1, §2, §3

Test [3] concerns Aspergillus section Nigri Asp21. Description: Resistance to biocides: conidial germination. Format: cell-based. To be noted: strain Asp21, indoor Aspergillus section Nigri; read-out: EC50. The procedure: as §1, §2, §3
For test [4], the system named is Aspergillus section Nigri Asp33b. Description: Resistance to biocides: conidial germination. It counts as cell-based. To be noted: strain Asp33b, indoor Aspergillus section Nigri; read-out: EC50. The procedure:
as §1, §2, §3

Test [5] has as its system Aspergillus westerdijkiae PP3. Description: Resistance to biocides: conidial germination. It counts as cell-based. The settings on record: strain PP3, Aspergillus westerdijkiae; read-out: EC50. The procedure:
as §1, §2, §3

Test [6] has as its system Indoor Trichoderma atroviride 14/AM. Description: Resistance to biocides: conidial germination. Format: cell-based. The settings on record: strain 14/AM, read-out: EC50. The procedure: as §1, §2, §3
For test [7], the system named is Indoor Trichoderma atroviride KIV10. The test is described as follows: Resistance to biocides: conidial germination. To be noted: strain KIV10, indoor Trichoderma atroviride; read-out: EC50. It counts as cell-based. The procedure: as §1, §2, §3
In test [8] the test system is Indoor Trichoderma atroviride Ke14. Description: Resistance to biocides: conidial germination. Format: cell-based. The settings on record: strain Ke14, indoor Trichoderma atroviride; read-out: EC50. The procedure:
as §1, §2, §3

In test [9] the test system is Indoor Trichoderma atroviride Tri335. Description: Resistance to biocides: conidial germination. Format: cell-based. The settings on record: strain Tri335, indoor Trichoderma atroviride; read-out: EC50. The procedure:
as §1, §2, §3

The test system of test [10] is Indoor Trichoderma atroviride Tri7A/SKK. The test is described as follows: Resistance to biocides: conidial germination. It counts as cell-based. To be noted: strain Tri7A/SKK, read-out: EC50. The procedure:
as §1, §2, §3

Test [11] concerns Paecilomyces sp. Pec1/his. The test is described as follows: Resistance to biocides: conidial germination. The settings on record: strain Pec1/his, indoor Paecilomyces sp.; read-out: EC50. Format: cell-based. The procedure: as §1, §2, §3
Test [12] deals with Paecilomyces sp. Pec1/skk. Description: Resistance to biocides: conidial germination. To be noted: strain Pec1/skk, indoor Paecilomyces sp.; read-out: EC50. Format: cell-based. The procedure: as §1, §2, §3
The subject of test [13] is Paecilomyces variotii Pac1/kop. Description: Resistance to biocides: conidial germination. Format: cell-based. The settings on record: strain Pac1/kop, indoor Paecilomyces variotii; read-out: EC50. The procedure:
as §1, §2, §3

For test [14], the system named is Paecilomyces variotii Pac2/kop. The test is described as follows: Resistance to biocides: conidial germination. Format: cell-based. The settings on record: strain Pac2/kop, indoor Paecilomyces variotii; read-out: EC50. The procedure:
as §1, §2, §3

A further test relates to Penicillium sp. 20b/skk. The test is described as follows: Resistance to biocides: conidial germination. It counts as cell-based. To be noted: SP.20B/SKK; strain 20b/skk, indoor Penicillium sp.; read-out: EC50. The procedure:
as §1, §2, §3

In a further test the test system is Penicillium sp. 26/skk. Description: Resistance to biocides: conidial germination. It counts as cell-based. To be noted: SP.26/SKK; strain 26/skk, indoor Penicillium sp.; read-out: EC50. The procedure:
as §1, §2, §3

Test [15] concerns Trichoderma citrinoviride SJ40. Description: Resistance to biocides: conidial germination. It counts as cell-based. The settings on record: strain SJ40, indoor Trichoderma citrinoviride; read-out: EC50. The procedure: as §1, §2, §3
For test [16], the system named is Outdoor T. atroviride SZMC 12323. The test is described as follows: Resistance to biocides: conidial germination. The settings on record: Trichoderma atroviride; strain SZMC 12323, outdoor T. atroviride; read-out: EC50. It counts as cell-based, Trichoderma atroviride. The procedure: as §1, §2, §3
For test [17], the system named is Outdoor T. atroviride SZMC 12474. The test is described as follows: Resistance to biocides: conidial germination. It counts as cell-based, Trichoderma atroviride. To be noted: Trichoderma atroviride; strain SZMC 12474, outdoor T. atroviride; read-out: EC50. The procedure: as §1, §2, §3
Test [18] concerns Outdoor T. atroviride SZMC 12516. The test is described as follows: Resistance to biocides: conidial germination. Format: cell-based, Trichoderma atroviride. To be noted: Trichoderma atroviride; strain SZMC 12516, outdoor T. atroviride; read-out: EC50. The procedure: as §1, §2, §3
Test [19] relates to Outdoor T. atroviride SZMC 12541. Description: Resistance to biocides: conidial germination. Format: cell-based, Trichoderma atroviride. To be noted: Trichoderma atroviride; strain SZMC 12541, outdoor T. atroviride; read-out: EC50. The procedure: as §1, §2, §3
The subject of test [20] is Outdoor T. atroviride SZMC 1723. The test is described as follows: Resistance to biocides: conidial germination. It counts as cell-based, Trichoderma atroviride. To be noted: Trichoderma atroviride; strain SZMC 1723, outdoor T. atroviride; read-out: EC50. The procedure: as §1, §2, §3
Test [21] concerns Outdoor T. atroviride SZMC 207080. Description: Resistance to biocides: conidial germination. It counts as cell-based, Trichoderma atroviride. The settings on record: Trichoderma atroviride; strain SZMC 207080, outdoor T. atroviride; read-out: EC50. The procedure:
as §1, §2, §3

Values after ≈ are worked out from the molar mass of the structure shown. Where only a bound is given, the exact number is not on record here.

As usually defined, the EC50 is the midpoint of the concentration-response curve. In the case of `O=BOB(O)OB(O)OB=O` [Borax, sodium tetraborate], the EC50 is greater than 5000 µg/mL with Ch. globosum 2b/26; 5000 µg/mL in [1]; no less than 5000 µg/mL in test [2]; no less than 5000 µg/mL in test [3]; no less than 5000 µg/mL in test [4]; 5000 µg/mL in test [5]. Besides, the EC50 in test [6] was 1200 µg/mL; in test [7] it was 2500 µg/mL; in test [8], 1200 µg/mL; in test [9] it was 2500 µg/mL; in test [10] it was 1200 µg/mL; in test [11], no less than 5000 µg/mL. The concentration giving a half-maximal response (EC50) in test [12] was no less than 5000 µg/mL; in [13], no less than 5000 µg/mL; in test [14], no less than 5000 µg/mL; in the test on Penicillium sp. 20b/skk, greater than 5000 µg/mL; in the test with Penicillium sp. 26/skk, greater than 5000 µg/mL; in test [15], 1200 µg/mL. The half-maximal effective concentration (EC50) in test [16] is 1200 µg/mL; in test [17], 2500 µg/mL; in test [18] it was 2500 µg/mL; in test [19], 1200 µg/mL; in test [20], 1200 µg/mL; in [21] it was 1200 µg/mL.

In the case of `OCCOc1ccccc1` [Phenoxy-ethanol, phenoxyethanol], the half-maximal effective concentration (EC50) in the test on Ch. globosum 2b/26 came out at 1500 µg/mL (≈ 10.9 mM); in test [1], 3200 µg/mL (≈ 23.2 mM); in [2], 3000 µg/mL (≈ 21.7 mM); in test [3], 3000 µg/mL (≈ 21.7 mM); in [4], 3000 µg/mL (≈ 21.7 mM); in test [5], 1500 µg/mL (≈ 10.9 mM). The EC50 was found to be 3000 µg/mL (≈ 21.7 mM) in test [6]; 3000 µg/mL (≈ 21.7 mM) in test [7]; 1500 µg/mL (≈ 10.9 mM) in test [8]; 3000 µg/mL (≈ 21.7 mM) in test [9]; 1500 µg/mL (≈ 10.9 mM) in [10]; 3000 µg/mL (≈ 21.7 mM) in test [11]. The EC50 in test [12] is 3000 µg/mL (≈ 21.7 mM); in test [13], 3000 µg/mL (≈ 21.7 mM); in test [14], 3000 µg/mL (≈ 21.7 mM); in the test with Penicillium sp. 20b/skk it was 1500 µg/mL (≈ 10.9 mM); in the test on Penicillium sp. 26/skk it was 3000 µg/mL (≈ 21.7 mM); in [15], 1500 µg/mL (≈ 10.9 mM). The EC50 in test [16] was determined as 1500 µg/mL (≈ 10.9 mM); in test [17], 3000 µg/mL (≈ 21.7 mM); in test [18], 1500 µg/mL (≈ 10.9 mM); in test [19], 1500 µg/mL (≈ 10.9 mM); in test [20] it was 1500 µg/mL (≈ 10.9 mM); in test [21], 3000 µg/mL (≈ 21.7 mM).
